Measurements: patent publication US20240009223A1, “6-THIO-2'-DEOXYGUANOSINE (6-THIO-DG) RESULTS IN TELOMERASE DEPENDENT TELOMERE DYSFUNCTION AND CELL DEATH IN VARIOUS MODELS OF THERAPY-RESISTANT CANCER CELLS” (The Board of Regents of The University of Texas System, priority 2016, published 2024)

What was measured:
[1] = system: WM9 BR xenografts; experiment: WM9 BR xenograft tumor volume; format: in vivo, human; settings: WM9 BR xenografts in mice
Experimental: (§1) Melanoma Xenotransplantation and In vivo Studies. 100,000 melanoma cells were harvested from cell culture and re-suspended in culture medium and Matrigel at a 1:1 ratio. Cells were subcutaneously injected into mice, which were treated with indicated inhibitors when the tumor volume reached 100 mm^3. Mice were sacrificed at the end time point and solid tumors were collected. All animal experiments were performed in accordance with Wistar IACUC protocol 112330 in NOD.[…] 1 Wjl/SzJ mice.

[2] = system: PEO4; experiment: Relative cell viability, PEO4; format: cell-based, human; settings: 5 days
Experimental: Additionally, the efficacy of 6-thio-dG was tested using two human ovarian cancer cell lines, PEO4 and PEO1-CR. PEO4 is a derivative line of BRCA1/2-mutant PEO1 that regains homologous recombination by BRCA reversion mutation. […] Importantly, all three cell lines were sensitive to 6-thio-dG after the 5-day treatment (FIGS. 14H-14J).

[3] = system: G43 tumors; experiment: G43 xenograft tumor volume; format: in vivo, mouse; settings: xenografts treated for 15 days; p<0.0001
Experimental: Melanoma Xenotransplantation and In vivo Studies. 100,000 melanoma cells were harvested from cell culture and re-suspended in culture medium and Matrigel at a 1:1 ratio. Cells were subcutaneously injected into mice, which were treated with indicated inhibitors when the tumor volume reached 100 mm^3. Mice were sacrificed at the end time point and solid tumors were collected. All animal experiments were performed in accordance with Wistar IACUC protocol 112330 in NOD.Dg-Prkdc scidlL2rg tm 1 Wjl/SzJ mice.
This work was further extended to non-melanoma therapy-resistant cancer cells in order to evaluate the efficacy of 6-thio-dG more broadly. The mouse pancreatic cancer cell line G43 was established from mouse pancreatic tumors harboring mutations in KRAS and P53 that progressed on radiation therapy and subsequently ipilimumab.

[4] = system: 1205Lu xenografts; experiment: 1205Lu xenograft tumor volume; format: in vivo, human; settings: 1205Lu xenografts in mice; treated for 12 days
Experimental: FIGS. 3A-3E show long-term cell growth assay of 16 BRAF-mutant melanoma cell lines that were treated with 6-thio-dG or PLX4720 at indicated doses for 12 days (FIG. 3A). […] Cells were then harvested and co-stained with PSVue643 and Propidium iodide (PI). The average of 2 biological replicates are representative of 2 independent experiments; SA-β-gal staining of 4 BRAF-mutant melanoma cell lines treated with 6-thio-dG at 5 μM for 9 days (FIG. 3D). […] Melanoma Xenotransplantation and In vivo Studies. 100,000 melanoma cells were harvested from cell culture and re-suspended in culture medium and Matrigel at a 1:1 ratio. Cells were subcutaneously injected into mice, which were treated with indicated inhibitors when the tumor volume reached 100 mm^3. Mice were sacrificed at the end time point and solid tumors were collected. All animal experiments were performed in accordance with Wistar IACUC protocol 112330 in NOD.[…] 1 Wjl/SzJ mice.

[5] = system: A375^Fucci2 cells; experiment: Time-lapse imaging of cell cycle (Fucci2); format: cell-based, human; settings: over 42 hours, data not shown
[6] = system: AXL, ARID1A and PLK1 in 13-456-5-3 xenografts; experiment: RPPA of 13-456-5-3 xenografts; format: in vivo, human
From the text: Analysis of Gene Expression Microarray Data and Reverse Phase Protein Array (RPPA) Data. The raw data of gene expression microarrays generated from Illumina Chips were normalized, background-corrected and summarized using the R package “lumi”. […] To reduce false positives, the unexpressed probes were removed. The R package “limma” was employed for gene differential expression analysis, followed by multiple test correction by the Benjamini and Hochberg procedure. […] The inventors also conducted GSEA as previously reported. For GSEA, they analyzed gene sets obtained from the Molecular Signatures Database (world-wide-web at broadinstitute.org/gsea/msigdb/). The same differential expression analysis method was applied to RPPA data.

[7] = system: A375 melanoma cells; experiment: FACS analysis of apoptosis, A375 time-course; format: cell-based, human; settings: post-treatment
Experimental: FIGS. 3A-3E show long-term cell growth assay of 16 BRAF-mutant melanoma cell lines that were treated with 6-thio-dG or PLX4720 at indicated doses for 12 days (FIG. 3A). […] Cells were then harvested and co-stained with PSVue643 and Propidium iodide (PI). The average of 2 biological replicates are representative of 2 independent experiments; SA-β-gal staining of 4 BRAF-mutant melanoma cell lines treated with 6-thio-dG at 5 μM for 9 days (FIG. 3D).
FACS Analysis of Apoptosis and Cell Death. Adherent cells were harvested with 0.05% Trypsin-EDTA, pooled with floating cells and then washed once with 1×DPBS. Cells were then pelleted and stained with PSVue® 643 at 0.5 μM and Propidium iodide at 50 ug/ml diluted in TES buffer for 5 min in the dark. Cells were then immediately subjected to FACS analysis using a BD LSR II flow cytometer and at least 5,000 cells per sample were acquired.
In a time-course experiment, it was shown that the induction of apoptosis started to occur as early as 48 hour post-treatment (FIG. 3C).

[8] = system: A375 cells; experiment: RPPA functional proteome profiling of A375 cells; format: cell-based, human; settings: 72 hours
[9] = system: AXL, ARID1A and PDGFRβ in 1205Lu, LOX-IMVI BR and UACC-903 BR xenografts; experiment: RPPA of xenografts treated in vivo; design: species or system human; settings: LOX-IMVI BR and UACC-903 BR xenografts treated in vivo
[10] = system: colon cancer cell line, HCT-116; settings: Mender et al., 2015; cited from earlier work
[11] = system: 13-456-3-3 xenografts; experiment: 13-456-3-3 xenograft tumor volume; format: in vivo, human
Experimental: as §1

[12] = system: panel of 12 cancer cell lines of 9 different histological origins; experiment: Long-term cell growth assay (crystal violet), 12 non-melanoma cancer cell lines; format: cell-based; settings: 9-12 days; in most cases
Experimental: FIGS. 1A-1B show long-term cell growth assay of 12 non-melanoma cancer cell lines (FIG. 1A) and 12 BRAF-mutant melanoma cell lines (FIG. 1B) that were treated with 6-thio-dG (6dG) or BIBR 1532 (BIBR) at indicated doses for 9 to 12 days.
Treatment of a Variety of Cancer Cell Lines with Telomerase-directed 6-thio-dG Impairs Cell Viability. […] To further confirm the inhibitory effect of 6-thio-dG, a panel of 12 cancer cell lines of 9 different histological origins was treated with 6-thio-dG for 9-12 days. As the control for 6-thio-dG, a known telomerase inhibitor, BIBR 1532, was also included. In most cases, these cancer cell lines were sensitive to 6-thio-dG administered at a dose of 2.5 μM and higher (FIG. 1A).

With Nc1nc2c(ncn2[C@H]2C[C@H](O)[C@@H](CO)O2)c(=S)[nH]1 [6-thio-dG, 6-thio-2′-deoxyguanosine] the “in vivo growth of xenografts” value [1] was “significantly impaired the in vivo growth”, the “sensitivity (relative cell viability)” value [2] was “sensitive” and the “growth of G43 tumors” value [3] was “significantly delayed the growth”. The tumor growth [4] was “significantly impair tumor growth”, the “cell cycle progression (time-lapse imaging)” value [5] was “arrested at the G2/M checkpoint followed by cell death” and the “therapy-resistant markers AXL, ARID1A and PLK1 (RPPA)” value [6] was “down-regulated”. For the same compound, the “time at which induction of apoptosis started to occur” value [7] was 48 h, the “top 30 proteins (cell cycle, DNA damage response, receptor tyrosine kinase signaling) by RPPA” value [8] was “significantly down-regulated” and the “AXL, ARID1A and PDGFRβ (RPPA) in xenografts” value [9] was “inhibition”. For the same compound, the cell viability [10] was “inhibited cell viability”, the “anti-tumor activity in xenografts” value [11] was “anti-tumor activity” and the “dose at which the cell lines were sensitive (long-term cell growth)” value [12] was ≥ 2.5 µM.
